Results taken from US6497862B2, “Composition for inhibiting body odor and uses thereof” (Kabushiki Kaisha Hayashibara, priority 2000, dated 2002).

Legend:
[1] = Panel test of body-odor-like smell (KAREI-SHU), 9-hexadecanoic acid heated (Experiment 3); set-up: key: +++: the same or higher level of odor; ++: slightly lower level of odor; +: clearly lower level of odor than that of the control system; settings: compared with control system
Excerpt: (§1) Upon the HSG samples, the level of a body-odor-like smell was examined on a panel test consisting of six professional panels; the panels directly smelled the samples from each glass vial and judged the level of the smells for each samples with test saccharides based on the following four ranks, i.e., the same or higher level of odor (+++), slightly lower level of odor (++), clearly lower level of odor (+), and odorless (−) as compared with the control system. Summing up the data from the panels, the samples tested were totally evaluated.
(§2) The content of 2-nonenal in HSG was measured by GC similarly as in Experiment 1 except that 9-hexadecanoic acid or palmitoleic acid was used as a fatty acid and 2-nonenal, a volatile aldehyde, was used as a standard substance. The level of body-odor-like smell, particularly with respect to KAREI-SHU, in each sample was evaluated by panel test in accordance with the method in Experiment 1.

[2] = Formation of 2-nonenal from 9-hexadecanoic acid by heating, GC of HSG (Experiment 3); settings: 9-hexadecanoic acid + 100 mg test saccharide, heated at 105° C. for one hour; control 25.7
Method: (§3) One hundred milligrams of oleic acid as a fatty acid, 500 mg of cellulose powder, and 1.25 ml of 0.12 M phosphate buffer (pH 6.0) were placed in a 20-ml glass vial. To the glass vial were added 100 mg of either of crystalline trehalose hydrate, crystalline maltitol anhydride, crystalline sorbitol anhydride, crystalline sucrose anhydride, crystalline maltose anhydride, and crystalline neotrehalose hydride as test saccharides (throughout Experiments 1 to 6, these saccharides are designated as “trehalose”, “maltitol”, sorbitol”, “sucrose”, “maltose”, and “neotrehalose”, respectively), followed by sealing the glass vial with a butyl rubber. As a control system, there provided a glass vial, with no a test saccharide, which differed from the test glass vial on this point. These glass vials were heated at 105° C. for one hour, cooled to ambient temperature, and kept in an aluminum heat-block (abbreviated as “heat block, hereinafter”), which had been preheated to 80° C. After 5-minutes standing, two milliliters of a head space gas (abbreviated as “HSG”, hereinafter) were collected from each glass vial with a syringe.
(§4) The collected HSG was analyzed for content of volatile aldehydes on gas chromatography (abbreviated as “GC” hereinafter) using “GAS CHROMATOGRAPH GC-14A”, as a GC apparatus; “CAPILLARY COLUMN SUPELCO-WAX”, having 0.25 mm in inner diameter, 60 m in length, and 0.25 μm in thickness, commercialized by Supelco Inc., Tokyo, Japan, as a column for analysis; helium gas at a flow rate of one ml/min as a carrier gas, under temperature conditions of 250° C. for injecting a sample and of a column thermostatic bath temperature being kept at 80° C. for five minutes and then increased up to 240° C. at a rate of 5° C./min. As standard specimens, propanal, butanal, and hexanal as volatile aldehydes were used. Based on the peak area obtained from gas chromatography for the standard specimens and HSG samples, the content of respective volatile aldehydes in HSG was calculated.
as §2

[3] = Formation of volatile aldehydes from oleic acid by heating, GC analysis of head space gas (Experiment 1); settings: oleic acid 100 mg + 100 mg test saccharide, heated at 105° C. for one hour; for Content in HSG, Hexanal: control 0.08; for Content in HSG, Butanal: control 1.04; for Content in HSG, Propanal: control 9.41
Method: as §3, §4

[4] = Panel test of body-odor-like smell, oleic acid heated (Experiment 1); set-up: key: +++: the same or higher level of odor; ++: slightly lower level of odor; +: clearly lower level of odor than that of the control system; settings: oleic acid heated at 105° C. for one hour; six panels, compared with control system
Method: as §3, §1

[5] = Formation of 2-nonenal from linoleic acid by heating, GC of HSG (Experiment 2); settings: linoleic acid + 100 mg test saccharide, heated at 105° C. for one hour; control 5.75
Method: as §3, §4
(§5) The content of 2-nonenal in HSG was measured by GC similarly as in Experiment 1 except that linoleic acid was used as a fatty acid and 2-nonenal, a volatile aldehyde, was used as a standard substance. The level of a body-odor-like smell, particularly with respect to KAREI-SHU, in each sample was evaluated by panel test in accordance with the method in Experiment 1.

[6] = Panel test of body-odor-like smell (KAREI-SHU), linoleic acid heated (Experiment 2); set-up: key: +++: the same or higher level of odor; ++: slightly lower level of odor; +: clearly lower level of odor than that of the control system; settings: compared with control system
Excerpt: as §1, §5

Compound | Evaluation of panel test [1] | Content of 2-nonenal in HSG [2] [µg/mL] | Content in HSG, Hexanal [3] [µg/mL] | Content in HSG, Butanal [3] [µg/mL] | Content in HSG, Propanal [3] [µg/mL] | Evaluation of panel test [4] | Content of 2-nonenal in HSG [5] [µg/mL] | Evaluation of panel test [6]
OC[C@H]1O[C@@H](O[C@H]2O[C@H](CO)[C@@H](O)[C@H](O)[C@H]2O)[C@H](O)[C@@H](O)[C@@H]1O [Neotrehalose, neotrehalose] | +++ | 25.7 | 0.08 | 1.25 | 8.89 | +++ | 5.64 | +++
OC[C@H]1O[C@H](O[C@H]2[C@H](O)[C@@H](O)C(O)O[C@@H]2CO)[C@H](O)[C@@H](O)[C@@H]1O (mixture of isomers) [Maltose, maltose] | +++ | 24.2 | 0.07 | 1.38 | 9.09 | +++ | 4.60 | +++
OC[C@@H](O)[C@@H](O)[C@H](O)[C@@H](O)CO [Sorbitol, sorbitol] | +++ | 23.6 | 0.06 | 1.06 | 8.31 | +++ | 5.12 | +++
